Assay results as given in paper PMC10844353, “Dose–response effects on HbA1c and bodyweight reduction of survodutide, a dual glucagon/GLP-1 receptor agonist, compared with placebo and open-label semaglutide in people with type 2 diabetes: a randomised clinical trial” (Diabetologia, 2023).

How the values were obtained:
[1] = tested on: participants with type 2 diabetes; assay: Phase II trial: exploratory biomarkers and NASH-related scores, change from baseline at EoT; assay type: in vivo, human; details: up to 1.0 mg qw open-label, after 16 weeks
Text: Pharmacodynamic endpoints were the changes from baseline in exploratory biomarkers related to liver function and fatty liver disease (plasma levels of cytokeratin 18 and Pro-C3 and enhanced liver fibrosis [ELF] score), glucose metabolism (adiponectin and fasting insulin and C-peptide levels) and target receptor engagement (amino acid and glucagon levels). Exploratory NASH-related scores (Fibrosis-4 [Fib-4] score, aspartate aminotransferase/platelet ratio [APRI] and non-alcoholic fatty liver disease [NAFLD] fibrosis score) were assessed as safety-related endpoints.
HbA1c was assessed at screening, weeks 1, 5, 8, 12 and 16, EoT and follow-up and analysed centrally. Bodyweight was measured at every visit (screening, weeks 1–8, 12 and 16, EoT and follow-up). Waist circumference was measured at screening, weeks 1 and 6 and EoT. Waist circumference was measured at the midpoint between the lowest rib and the iliac crest. Participants were provided with a glucose monitoring device for weekly use at home during the study. Participant-reported outcomes (Three-Factor Eating Questionnaire [TFEQ-R18 V2], Patient Global Impression of Severity [PGI-S] and a hunger visual analogue scale [VAS]) were assessed at weeks 1, 5 and 8 and EoT in a fasted state. […]
(§1) MMRM, as for the primary endpoint, and descriptive statistics. All safety endpoints, NASH-related scores and SMBG were analysed descriptively. […]

[2] = tested on: participants with type 2 diabetes; assay: Phase II trial: adverse events (safety and tolerability); assay type: in vivo, human; details: up to 1.0 mg qw open-label
Protocol: (VAS), the Patient’s Global Impression of Severity (PGI-S) for difficulty to control eating behaviours and the 7-point profile of self-monitoring of blood glucose (SMBG).
At each study visit, participants were advised to adhere to the specific recommended diet and exercise plan provided to them during diet and exercise counselling throughout the study.
Survodutide was made available in vials (2 mg/ml, 1 ml fill volume per vial) for dose escalation in Weeks 1–6 and in pre-filled syringes (various concentrations, 0.5 ml fill volume) for maintenance dose in Weeks 7–16. The placebo solution (isotonic sodium chloride) was filled into identical vials or pre-filled syringes. […]
Safety and tolerability were assessed based on the general occurrence of treatment -emergent adverse even ts, safety laboratory parameters, physical examination, vital sign measurements and 12 -lead ECG . ECG services were externally provided and recordings were evaluated centrally.
as §1

[3] = Phase II trial: pharmacokinetics (steady state, dose proportionality of trough concentrations); assay type: in vivo, human
Protocol: The attainment of steady state and dose proportionality of survodutide were assessed as pharmacokinetic endpoints.
HbA1c was assessed at screening, weeks 1, 5, 8, 12 and 16, EoT and follow-up and analysed centrally. Bodyweight was measured at every visit (screening, weeks 1–8, 12 and 16, EoT and follow-up). Waist circumference was measured at screening, weeks 1 and 6 and EoT. Waist circumference was measured at the midpoint between the lowest rib and the iliac crest. Participants were provided with a glucose monitoring device for weekly use at home during the study. Participant-reported outcomes (Three-Factor Eating Questionnaire [TFEQ-R18 V2], Patient Global Impression of Severity [PGI-S] and a hunger visual analogue scale [VAS]) were assessed at weeks 1, 5 and 8 and EoT in a fasted state. Blood sampling for pharmacokinetics was carried out at every visit (weeks 1–8, 12 and 16, EoT and follow-up) and blood sampling for exploratory biomarkers was carried out at weeks 1, 5, 8 and 12, EoT and follow-up. Safety assessments are described in the ESM Methods.

[4] = tested on: people with type 2 diabetes or overweight/obesity; details: AWARD-5, 52 weeks; cited from earlier work
Text: Glucagon-like peptide-1 receptor (GLP-1R) agonists, such as liraglutide and semaglutide, have been developed for the treatment of both type 2 diabetes and obesity. […] Apart from the well-characterised gastrointestinal (GI) adverse events (AEs), GLP-1R agonists are generally well tolerated. ... || Survodutide (BI 456906) is a novel subcutaneous GCGR/GLP-1R dual agonist in development for the treatment of people with type 2 diabetes, obesity and non-alcoholic steatohepatitis (NASH). Addition of a C18 fatty acid into the acylated peptide, as a half-life-extending principle, allows for weekly administration of survodutide. […] In ... || In addition to semaglutide, other GLP-1R agonists now approved for the treatment of type 2 diabetes have been investigated in combination with background metformin therapy. […] The maximum reduct ... || (+ 2 further places)

[5] = in vivo; cited from earlier work

With “Semaglutide: GLP-1R agonist; open-label reference control, up to 1.0 mg qw” the “Change from baseline in glucagon” value [1] was “no relevant changes” and the “Participants reporting severe AEs” value [2] was “none”.

For Survodutide, the “Time at which steady state appeared to be achieved (visually)” value ([3]; DG1–5, plasma trough concentrations) was 8 week, the “Time at which steady state appeared to be achieved (visually)” value ([3]; DG6, plasma trough concentrations) was 12 week and the “Dose proportionality of plasma trough concentrations” value ([3]; escalating weekly or biweekly sc doses) was “approximately dose-proportional”.

In the case of “dulaglutide: GLP-1R agonist approved for the treatment of type 2 diabetes”, the Bodyweight reduction [4] is listed as “–3.1 kg”.

In the case of “oxyntomodulin: endogenous proglucagon derivative, GCGR/GLP-1R dual agonist”, the Half-life [5] is given as “very short”.
